For assay [1], the system named is A549 xenografts. The experiment in a line: Pharmacodynamic biomarkers by immunohistochemistry after IR. The assay is classed as in vivo, mice. The note with it: single dose AZD7648 100 mg kg−1, 1 h before IR 6 Gy.
For assay [2], the system named is A549 xenografts. The experiment in a line: Xenograft efficacy study with fractionated IR. It is filed as in vivo, mice. How it is done: (§1) Immunocompromised SCID (C.B-17/IcrHan®Hsd-Prkdc^scid) or Hsd:Athymic Nude-Foxn1^nu female mice (Envigo) were used for tumour implantation. […] When dosed twice daily, the time between the morning and evening doses was 8 h. Targeted irradiation of 2 Gy was delivered over 2 min daily over the first 5 days of treatment. Liposomal doxorubicin (Doxoves) was diluted in physiological saline and intravenously dosed at 2.5 or 5 mg kg^−1 once per week. Olaparib was formulated in 10% DMSO/30% Kleptose and orally dosed at 100 mg kg^−1 once daily. […] Statistical significance was evaluated using a one-tailed t-test. All in vivo studies complied with all relevant ethical regulations for animal testing and research, followed AstraZeneca’s global bioethics policy and received ethical approval from the AstraZeneca ethical committee. HBCx-17 PDX study was carried out at XenTech, France in accordance with French regulatory legislation concerning the protection of laboratory animals. CTG-703, CTG-0828 and CTG-0149 PDX studies were carried out at Champions Oncology, Inc., USA in accordance to the guidelines of the Institutional Animal Care and Use Committee (IACUC) of Champions Oncology and the USA regulatory legislation. CDX and OV2022 PDX studies were conducted in the UK in accordance with UK Home Office legislation, the Animal Scientific Procedures Act 1986 and the Home Office project licences 70/8839, 70/8894 and P0EC1FFDF. […]
(§2) Tumours were measured (length x width) by bilateral Vernier calliper measurements and tumour volume calculated using Mousetrap software. Mice were randomized into […]
(§3) treatment groups when mean tumour volume reached ~0.2 cm 3. AZD7648 was formulated in 0.5% hydroxypropyl methylcellulose (HPMC)/0.1% Tween80 (HPMC/T) and orally dosed (4–100 mg/kg). When dosed twice daily (bid), the time between the morning and evening doses was 8 hours. Targeted irradiation of 2 Gy was delivered over 2 minutes daily over the first 5 days of treatment. Liposomal doxorubicin (Doxoves) was diluted in physiological saline and intravenously dosed at 2.5 or 5 mg/kg once per week. Olaparib was formulated in 10% DMSO/30% Kleptose and orally dosed at 100 mg/kg once daily.
(§4) HPMC/T. Tumour growth inhibition from start of treatment was assessed by co mparison of the mean change in tumour volume for the control and treated groups, using the Mousetrap application and represented as tumour growth inhibition (TGI). Statistical significance was evaluated using a one-tailed t-test. […]
(§5) was prepared using an appropriate dilution factor and compared against an 11-point standard calibration curve (1–10,000 nM) prepared in DMSO and spiked into bl ank plasma. […] Supernatant (50 µL) was then diluted in 300 µL water and analysed with ultra-performance liquid chromatography–tandem mass […]

Assay [3] concerns NCI-H1299 xenografts. The experiment in a line: Xenograft efficacy study with fractionated IR. The assay is classed as in vivo, mice. How it is done: as §1, §2, §3, §4, §5
The test system of assay [4] is CTG-703 ovarian PDX. The experiment in a line: PDX efficacy study. The following applies: AZD7648 single agent. It is filed as in vivo, mice. The procedure: as §1
(§6) SCID mice were surgically implanted subcutaneously with tumour fragments from donor mice. Tumours were measured (length x width) by bilateral Vernier calliper measurements and tumour volume calculated using Mousetrap software. Mice were randomized into […]
as §3
(§7) HPMC/T. Tumour growth inhibition from start of treatment was assessed by co mparison of the mean change in tumour volume for the control and treated groups, using the Mousetrap application and represented as tumour growth inhibition (TGI). Statistical significance was evaluated using a one-tailed t-test. HBCx-17 PDX study was carried out at XenTech, France in accordance with French regulatory legislation concerning the protection of laboratory animals. CTG-703, CTG-0828 and CTG-0149 PDX studies were carried out at Champions Oncology, Inc., USA in accordance to the guidelines of the Institutional Animal Care and Use Committee (IACUC) of Champions Oncology and the USA regulatory legislation. CDX and OV2022 PDX studies were conducted in the UK in accordance with UK Home Office legislation, the Animal Scientific Procedures Act 1986, and AstraZeneca’s global bioethics policy. Experimental details are outlined in Home […]
(§8) Blood samples were taken via venipuncture of the tail vein. Whole blood was mixed 1: 5 with PBS and centrifuged at 1500g for 3 minutes at 4°C, and the plasma was extracted […]
(§9) was prepared using an appropriate dilution factor and compared against an 11-point standard calibration curve (1–10,000 nM) prepared in DMSO and spiked into bl ank plasma. Acetonitrile (100 µL) was added with the internal standard, followed by centrifugation at 3000 rpm for 10 minutes. Supernatant (50 µL) was then diluted in 300 µL water and analysed with ultra-performance liquid chromatography–tandem mass […]
(§10) Xenograft sample preparation
(§11) Animals were euthanized and tumour samples snap frozen in liquid nitrogen or fixed in formalin and paraffin embedded for subsequent analysis. Tumour pieces were lysed in […]

The subject of assay [5] is CTG-0828 NSCLC PDX. Description: PDX efficacy study. The assay is classed as in vivo, mice. The note with it: AZD7648 single agent. The procedure: as §1, §6, §3, §7, §8, §9, §10, §11
In assay [6] the test system is CTG-0149 H&N PDX. The experiment in a line: PDX efficacy study. It is filed as in vivo, mice. The following applies: AZD7648 single agent. How it is done: as §1, §6, §3, §7, §8, §9, §10, §11
For assay [7], the system named is OV2022 ovarian PDX. The experiment in a line: PDX efficacy study. It is filed as in vivo, mice. The note with it: AZD7648 single agent. How it is done: as §1, §6, §3, §7, §8, §9, §10, §11
Assay [8] relates to FaDu ATM KO cells. The experiment in a line: Cell proliferation (GI50), Live/Dead assay. The following applies: Homo sapiens, read-out: GI50 (near 50% of maximal inhibition of cell proliferation). The assay is classed as cell-based. From the text:
by Live/Dead assay in A) UWB1.289 and UWB1.289 complemented with wild-type BRCA1 (UWB1.289 + BRCA1), DLD1 and DLD1 with the BRCA2 gene knocked out (DLD1 BRCA2 KO), and B) FaDu and A549 cells with the ATM gene knocked out (ATM KO) compared with their WT counterpart. Graphs represent percentage viable cells ± SD following 7 days’ treatment relative to DMSO vehicle-treated controls from one representative experiment of at least three independent experiments. Tables describe […]
and A549 ATM KO cells compared with their WT counterparts following 7 days’ treatment.
Mean pGI50 (–log [GI50]) ± SEM, geometric mean GI50, number of experimental repeats (n) and 95% confidence interval are described. C) Colony formation assay was performed on FaDu and A549 ATM KO and WT cells treated with increasing concentrations of olaparib. Graphs represent percentage surviving fraction of colonies ± SD following 10– 14 days’ treatment relative to DMSO vehicle-treated control from one representative experiment of three independent experiments. […] Mean pIC50
± SEM, geometric mean IC50, number of experimental repeats (n) and 95% confidence […]
8–14 days or with increasing concentrations of olaparib. Cell colonies were washed with […]
Mean surviving colonies were calculated from three technical replicates. […]
before survival fraction was calculated. […]
and quantified using the Acumen ® Cellista (TTP Labtech). […]

The test system of assay [9] is FaDu ATM KO xenograft model. The experiment in a line: Pharmacodynamic biomarkers by western blot. It is filed as in vivo, mice. The note with it: 30 min after 75 mg kg−1 dose of AZD7648. From the text:
(1 picture or pasted object on this page, not shown here)
treatment groups when mean tumour volume reached ~0.2 cm 3.

For the molecule `Cc1cc2ncnn2cc1Nc1ncc2c(n1)n(C1CCOCC1)c(=O)n2C` [AZD7648], in [1], the “IR-induced increases in pDNA-PKcs Ser2056 and γH2AX” value was “abolished”. Also, in assay [2] (AZD7648 100 mg kg−1 qd oral + IR 2 Gy for five consecutive days), the “tumour growth inhibition (TGI)” value was found to be 90%. Also, the “tumour response to single-agent treatment” value in assay [2] (AZD7648 100 mg kg−1 qd oral, single agent) was “insensitive”. Moreover, the tumour regression in assay [3] (AZD7648 50 mg kg−1 qd × 21 days + IR 2 Gy qd × 5 days) amounted to 55%; in [3] (AZD7648 100 mg kg−1 qd × 21 days + IR 2 Gy qd × 5 days) it was 85%. Further, the TGI is on record as 60–80% in [4], “too variable to assess the group effect” in assay [5], 60–80% in assay [6] and 60–80% in assay [7]. In addition, the GI50 in assay [8] is about 600 nM. The “reduction of pDNA-PKcs Ser2056, γH2AX and pRPA32 Ser4/Ser8” value in [9] was ~ 80%.

These data come from PMC6838110 (Nature Communications, 2019).
